From patent US11559586B2, “Nanoparticles for treatment of choroidal neovascularization and other indications” (Children's Medical Center Corporation, priority 2018, dated 2023) come the findings set out here.

This assay deals with laser-induced choroidal neovascularization. Description: Therapeutic study in laser-induced choroidal neovascularization model, CNV neovessel area. It counts as in vivo, C57BL/6 mice. Conditions: free drug, IV day 1, 3, 5; equal dose of doxorubicin. From the text:
Therapeutic effects of phototriggered activation of nanoparticles in CNV. The mouse model of laser-induced choroidal neovascularization mimics the neovascular aspect of wet AMD, and has been used extensively in studies of that disease. However, unlike the chronic development of wet AMD in human, the laser-induced mouse CNV model is acute—the optimum time point to assess neovessels in this model is between day 7 and day 14. After 14 to 21 days, spontaneous regression begins and lesion size decreases. The dosing regimen in this example was determined accordingly: treatment was initiated on day 7 when the lesions had formed, and its effects were assessed before spontaneous regression would begin on day 14.
In the in vivo therapeutic study, 200 microliters of PBS containing 1 mg of NP-[CPP]-doxo encapsulating 0.02 mg doxorubicin were injected via tail vein one week after photocoagulation (day 1 of treatment), and additional injections were given on day 3 and day 5. […] (The three drug-loaded groups contained equal doses of doxorubicin.) On day 7, mice were euthanized, the size of CNV lesions were assessed by fluorescent imaging of choroidal flat-mounts stained with isolectin GS-IB4 (which labels endothelial cells). […]

On to `COc1cccc2c1C(=O)c1c(O)c3c(c(O)c1C2=O)C[C@@](O)(C(=O)CO)C[C@@H]3O[C@H]1C[C@H](N)[C@H](O)[C@H](C)O1` [doxorubicin], for which the “reduction in neovessel area compared to PBS group” value is recorded as 26.8%.
